# Test results: publication PMC6367362, “MD001, a Novel Peroxisome Proliferator-activated Receptor α/γ Agonist, Improves Glucose and Lipid Metabolism” (Scientific Reports, 2019)
# Key:
# PPARβ/δ = target: T1, PPARβ/δ (Homo sapiens, UniProt Q03181); experiment: SPR analysis of binding to immobilised HA-PPARβ/δ; conditions: N.B = No binding up to 500 μM
# T1 construct: HA; made in house
# T1 sequence (Q03181 1-441): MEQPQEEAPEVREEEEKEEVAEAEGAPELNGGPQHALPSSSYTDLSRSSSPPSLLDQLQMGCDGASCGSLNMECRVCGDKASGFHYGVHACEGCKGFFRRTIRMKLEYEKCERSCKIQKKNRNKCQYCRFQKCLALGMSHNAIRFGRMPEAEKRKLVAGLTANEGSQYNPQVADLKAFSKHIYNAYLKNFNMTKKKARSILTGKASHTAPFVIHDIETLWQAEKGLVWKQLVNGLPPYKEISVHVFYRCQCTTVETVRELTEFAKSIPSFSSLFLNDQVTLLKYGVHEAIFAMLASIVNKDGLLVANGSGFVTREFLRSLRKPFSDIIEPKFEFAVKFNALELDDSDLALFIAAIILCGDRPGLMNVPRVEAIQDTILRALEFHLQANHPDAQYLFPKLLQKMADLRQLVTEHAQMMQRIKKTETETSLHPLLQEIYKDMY
# Experimental: SPR analysis was performed using a Reichert SR7500DC (Reichert Technologies, Depew, NY, USA). HA-PPARα, HA-PPARβ/δ, and HA-PPARγ were purified as previously described[23] and was immobilised on CMDH chips (Reichert Technologies) according to the manufacturer’s instructions. MD001 was loaded in a dose-dependent manner (31.25, 62.5, 125, 250, and 500 μM) for the SPR assay. The dissociation constant (KD) value was determined using the Scrubber2 program (Informer Technologies, Inc., Los Angeles, CA, USA).
# [1] = test system: differentiated C2C12 myotubes; experiment: In vitro glucose consumption assay, C2C12 myotubes; assay type: cell-based, mouse; conditions: 10, 50 μM, 24 h
# Experimental: Figure 3 MD001 promotes glucose consumption by induction of GLUT expression. HepG2 (A), differentiated 3T3-L1 adipocytes (B), and differentiated C2C12 myotubes (C) were treated with vehicle, MD001 (10, 50 μM), or rosiglitazone (rosi, 10 μM) for 24 h; glucose consumption was examined as described in the Methods section. Cells were harvested for total RNA isolation. Relative expression levels of GLUT2 (D) and GLUT4 (E,F) were quantitated using qRT-PCR. *, **, and ^† vs. vehicle. Data represent the mean ± SD of three independent experiments. *P < 0.05, **P < 0.01, and ^†P < 0.01.
# The glucose consumption assay was performed as previously described. Briefly, cells were treated with MD001 or rosiglitazone […]. The conditioned medium from cultured cells was harvested and assayed for glucose content using a Glucose Colorimetric Assay Kit II (BioVision Inc., Milpitas, CA, USA).
smiles,measurement,setting,value
Cc1c(O)cc(O)c2c(-c3ccccc3)c(C(=O)/C=C/c3ccccc3)c(=O)oc12 [MD001],"KD (M), second row of Supplementary Table S3 (PPARβ/δ)",PPARβ/δ,N.B
same,glucose consumption,[1],significantly increased glucose consumption in a dose-dependent manner
